# How the values were obtained:
# STAT5, STAT1, STAT3 = experiment: Western blot of phosphorylated STATs in CD8 T cells; format: cell-based, human
# Description: To address whether SUMOylation controls STAT activation in human CD8 T cells, polyclonally activated CD8 T cells were cultured with IL-2 in the presence or absence of HODHBt and levels of phosphorylated STATs were measured by Western blot. […] Proliferation of CD8 T cells is dependent on the activation and phosphorylation of STAT5.
# (§1) In general, samples are prepared and loaded on to a gel and during the electrophoresis the negatively charged proteins move toward the positively charged anode. In order to further analyze the proteins, they are transferred onto a membrane in a procedure called blotting. After the transfer, the membrane is blocked in order to prevent unwanted membrane-protein interaction in the following steps. To visualize the protein of interest the membrane is commonly first probed using a primary protein-specific antibody followed by a labeled secondary antibody used for detection. An image is taken of the membrane and the result is analyzed.
# STAT5 [1] = target: T1, STAT5 (Homo sapiens, UniProt P42229); experiment: Cellular thermal shift assay (CETSA) in 293FT-STAT5A cell lysates; format: binding
# T1 construct: expressed in transfected cells; host or cells: 293FT HEK cells expressing STAT5A (293FT-STAT5A)
# T1 sequence (P42229 1-794): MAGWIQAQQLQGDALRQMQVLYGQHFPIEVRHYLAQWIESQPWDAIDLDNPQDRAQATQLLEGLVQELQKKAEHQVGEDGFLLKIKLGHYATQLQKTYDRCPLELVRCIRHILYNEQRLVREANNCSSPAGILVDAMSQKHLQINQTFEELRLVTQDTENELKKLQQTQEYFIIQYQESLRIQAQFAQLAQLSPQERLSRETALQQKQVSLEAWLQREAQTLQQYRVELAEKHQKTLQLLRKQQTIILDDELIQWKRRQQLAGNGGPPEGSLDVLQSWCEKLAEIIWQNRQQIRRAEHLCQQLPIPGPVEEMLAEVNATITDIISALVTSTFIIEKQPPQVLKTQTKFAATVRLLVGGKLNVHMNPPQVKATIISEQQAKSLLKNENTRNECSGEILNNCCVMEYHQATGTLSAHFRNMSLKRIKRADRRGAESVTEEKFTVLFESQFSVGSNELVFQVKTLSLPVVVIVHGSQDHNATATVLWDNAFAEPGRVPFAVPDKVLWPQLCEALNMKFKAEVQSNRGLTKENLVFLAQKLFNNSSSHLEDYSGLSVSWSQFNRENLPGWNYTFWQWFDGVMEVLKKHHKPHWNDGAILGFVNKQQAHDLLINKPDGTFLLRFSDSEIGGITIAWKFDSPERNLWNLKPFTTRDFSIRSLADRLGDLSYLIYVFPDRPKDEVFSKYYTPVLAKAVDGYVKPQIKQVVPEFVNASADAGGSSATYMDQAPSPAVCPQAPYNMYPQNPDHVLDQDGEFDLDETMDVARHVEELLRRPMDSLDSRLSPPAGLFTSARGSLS
# Source text: To evaluate whether HODHBt and its analogs were directly binding to STAT5, a recently developed assay, cellular thermal shift assay (CETSA), was used. CETSA is based on the biophysical principle of ligand-induced changes in thermal stability of target proteins. As detailed in Molina & Nordlund, ANNU RE[…]. 2016; 56:141-61, the disclosure of which is hereby incorporated by reference in its entirety, the CETSA assay has been extensively used to identify drug targets using lysates, cells and tissues (FIG. 7A). After heating at different temperatures, the soluble fractions are analyzed for changes in the levels of the target protein (FIG. 7B). Binding of the compound can change the temperature at which the protein is denaturalized (FIG. 7C) leading to a change in the thermal melting curve (FIG. 7D).
# First, it was addressed whether HODHBt induced a thermal shift of STAT5 using cell lysates from 293FT-STAT5A. In this assay, high drug concentrations were used to perform CETSA in cell lysates (10,000-20,000 times the IC50). […] Briefly, cell lysates were incubated with either DMSO or HODHBt for 30 minutes at 25° C. After incubation, lysates were heated from 40° C. to 75° C. in 5 degrees intervals and the insoluble fractions were eliminated by centrifugation. […]
# [2] = test system: polyclonally activated CD4 T cells (TCM) killed by CD8 T cells
# Source text: An in vitro model to assess the cytolytic potential of human polyclonally activated CD8 T cells was developed. This model relied on the concept of a mix-lymphocyte reaction (MLR) in which CD8 T cells recognize CD4 T cells from a different donor as foreign and induced their killing (FIG. 11A). In this model, polyclonally activated CD8 T cells were co-cultured with polyclonally activated CD4 T cells from a different donor at an effector:target ratio (E:T) of 1:1. Cell death in both CD4 and CD8 subsets was measured at different time points using a fixable viability dye.
# To test this hypothesis, polyclonally activated CD8 T cells were co-cultured with polyclonally activated CD4 T cells from a different donor to resemble a mixed-lymphocyte reaction (MLR) at an effector:target ratio (E:T) 1:1 (FIG. 15A). CD4 T cells were activated in conditions that generate central memory CD4 T cells (TCM) cells. CD4 TCM are more resistant to apoptosis than other subsets of CD4 T cells. Cell death in both CD4 and CD8 subsets was measured at 72 hours using a fixable viability dye. Specifically, polyclonally activated CD4 T cells and CD8 T cells were co-cultured and cell death was measured at 72 hours. […] Using this assay, it was tested whether HODHBt increased the cytolytic capacity of CD8 T cells in two experimental set ups.
# STAT1, STAT5, Mx1 = experiment: Western blot of primary CD4 T cells (pSTAT1, pSTAT5, Mx1); format: cell-based, human; conditions: increased concentrations
# Description: as §1
# STAT5 [3] = conditions: Bosque et al., Cell Rep. 2017; cited from earlier work
smiles,measurement,setting,value
O=c1c2ccccc2nnn1O [HODHBt],phosphorylation of STAT1 and STAT3 in CD8 T cells,"STAT5, STAT1, STAT3; HODHBt alone",increased the phosphorylation levels of both STAT1 and STAT3
same,phosphorylation of STAT5 in CD8 T cells,"STAT5, STAT1, STAT3; after IL-2 treatment",increased the levels of phosphorylation of STAT5 after IL-2 treatment
same,phosphorylation of STAT1 and STAT3 in CD8 T cells,"STAT5, STAT1, STAT3; with IL-2, vs IL-2",enhanced those induced by IL-2
same,high molecular band generated (size of STAT5 dimer),"STAT5 [1]; lysates incubated with HODHBt, Western blot",approximately 188 kDa
same,thermal melting curve of STAT5,"STAT5 [1]; lysates, 5 mM, 30 minutes at 25° C, heated 40-75° C","drastically changed the thermal melting curve of STAT5, promoting its degradation"
same,killing capacity of CD8 T cells expanded in the presence of compound,[2]; CD8 T cells expanded in the presence of HODHBt,higher killing capacity
same,killing capacity of CD8 T cells over TCM cells,"[2]; HODHBt added during the MLR reaction, 72 hours",increased the killing capacity of CD8 T cells over TCM cells in a dose dependent manner
same,CD8 T cell death in co-culture,[2]; human,no increase in cell death in CD8 T cells in any of the experimental conditions
same,toxicity on CD8 T cells,"[2]; human, 72 h",no overt toxicity on CD8 T cells
same,CD4 T cell death in co-culture with CD8 T cells,"[2]; time course, fixable viability dye",detected only in the co-culture treated with HODHBt at 72 hours and 96 hours
same,levels of myxovirus resistance 1 (Mx1),"STAT1, STAT5, Mx1",increased the levels
same,levels of phosphorylated STAT1 and STAT5,"STAT1, STAT5, Mx1",increased the levels of phosphorylated STAT1 and STAT5
same,phosphorylation and transcriptional activity of STAT5,STAT5 [3],enhance phosphorylation and the transcriptional activity of STAT5

# Source: patent US12441693B2, “Targeting STAT sumoylation to enhance immune responses” (THE GEORGE WASHINGTON UNIVERSITY, priority 2018, dated 2025)
